Data as given in patent US7632801B2, “Identification and use of antiviral compounds that inhibit interaction of host cell proteins and viral proteins required for viral replication” (Mount Sinai School of Medicine of New York University, priority 1995, dated 2009).

System: Influenza A/WSN/Virus
Assay type: cell-based

## Ala Ser Gln Gly Thr Lys Arg Ser Tyr Glu Gln Met Glu Thr Asp Gly Glu Arg Gln (ASQGTKRSYEQMETDGERQ; listed as Homo sapiens) [NP-NLS oligopeptide, 19-amino acid NP-NLS oligopeptide corresponding to amino acids 2-20 of NP]
  inhibition of viral growth (hemagglutination titer): thousand-fold
